Data on one substance can be found in patent US20020103131A1, “Prevention of diabetes by administration of GnRH antagonists” (priority 2001, published 2002).

Holding throughout (format): in vivo
The subject of assay [1] is gonadectomized male NOD mice. The assay is described as follows: Incidence and onset of diabetes in gonadectomized male NOD mice. The conditions noted are these: 100 μg subcutaneously six times weekly. The text has this: (§1) The well-characterized NOD mice were used throughout the study. Male and female mice were purchased from the Jackson Laboratory (Bar Harbor, Me.). These mice are art-recognized animal models used in diabetes research. (Makino et al., (1980) Breeding of a Non-obese Diabetic Strain of Mice. Exp Anim, 29, 1-13; Miyazaki, A. T., et al, (1985) Predominance of T Lymphocytes in Pancreatic Islets and Spleen in Prediabetic Non-obese Diabetic (Nod) Mice: a Longitudinal Study. Clin Exp immunol, 60, 622-630)
(§2) Both intact and gonadectomized mice (GDX) were used. […] To compare the effects of GnRH agonists and antagonists, gonadectomized animals were randomized at 14 to 18 days of age and begun immediately in one of the following main treatment groups: GnRH agonist; Antide; vehicle. One group of gonadectomized males was treated with Nal-Glu, as an additional control. […]
(§3) Total immunoglobulin G concentrations were measured by single radial immunodiffusion assay using immunodiffusion plates containing monospecific antiserum for IgG (ICN Biomedicals, Inc., Costa Mesa, Calif.). […] Glycosuria was scored by comparison to reference standards on a scale of 0 to 4 as follows: negative=0; 30 mg/dL=1; 100 mg/dL=2; 300 mg/dL=3;>1000 mg/dL=4.
(§4) Serum immunoglobulin measurements were compared by two-tailed Student's paired t-tests. Percentages of mice remaining diabetes-free was assessed by Mantel-Haenszel methodology. […]

The test system of a further assay is NOD mice. The assay is described as follows: Serum prolactin by radioimmunoassay in treated NOD mice. The note with it: NOD mice under agonist or antagonist treatment. As for the experimental part:
Both intact and gonadectomized mice (GDX) were used. […] To compare the effects of GnRH agonists and antagonists, gonadectomized animals were randomized at 14 to 18 days of age and begun immediately in one of the following main treatment groups: GnRH agonist; Antide; vehicle. One group of gonadectomized males was treated with Nal-Glu, as an additional control.
GnRH (native decapeptide) was purchased from Bachem (Bubendorf, Switzerland). GnRH antagonist Antide (Acetyl-β-[2-Naphthyl]-D-Ala-D-p-Chloro-Phe-β-[3-Pyridyl]-D-Ala-Ser-Nε-]-Lys-Nε-[Nicotinoyl]-D-Lys-Leu-Nε-[Isopropyl]-Lys-Pro-D-Ala-NH2) was supplied by Contraceptive Development Branch (NICHHD) of the National Institutes of Health and Ares-Serono (Randolph, Mass.). A second GnRH antagonist, Nal-Glu (acetyl-D2Nal1, D4ClPhe2, D3Pal3, Arg5, Dglu6(AA), DAla10) was supplied by NICHHD and was used on a subset of mice. All references to GnRH agonist refer to the native decapeptide. Animals were injected subcutaneously in the nape of the neck six times weekly, in the a.m., with 100 μg of GnRH or GnRH antagonist in 100 μl of vehicle consisting of 50% propylene glycol and 50% double distilled water. […]
Serum testosterone concentrations were measured by RIA using a commercial kit (Coat-A-Count, Diagnostic Products Corporation, Los Angeles, Calif.). Serum LH and prolactin were measured by radioimmunoassay (RIA) using previously described methods. […]

Another assay concerns gonadectomized NOD mice. The experiment in a line: Serum total immunoglobulin G concentrations (single radial immunodiffusion) in gonadectomized NOD mice. The note with it: 100 μg subcutaneously six times weekly, 8 weeks of treatment, compared to vehicle / sham operated, FIG. 1.
From the text: as §1, §2, §3, §4

Entries after “also recorded” stand apart in the source; their conditions may differ.

With “GnRH agonist: GnRH (native decapeptide) purchased from Bachem; all references to GnRH agonist refer to the native decapeptide (QHWSYGLRPG; Gonadoliberin-1; UniProt P01148 24-33, looked up)”, the “Timing of onset of diabetes” value in assay [1] (gonadectomized NOD mice) is “accelerated the timing of onset of diabetes; also recorded: reciprocal effects”. For the same substance, the Incidence of diabetes result in assay [1] (gonadectomized male NOD mice, compared to vehicle, FIG. 2) is reported as “significantly increased the incidence”. Moreover, the Serum prolactin levels result with NOD mice is given as “neither agonist nor antagonist treatment altered serum prolactin levels”. Also, the “Serum IgG concentrations” value in the assay with gonadectomized NOD mice is “further increased IgG levels compared to vehicle; also recorded: reciprocal effects”.
